# Patent publication US7084155B2, “Chemokine receptor binding heterocyclic compounds” (AnorMED, priority 2000, dated 2006)
# Experiments:
# Assay type in all cases: cell-based
# [1] = system: SDF-1 induced Ca flux in SUP-T1 cells; experiment: Inhibition of chemokine (SDF-1) induced Ca flux measured on a FLIPR; conditions: Homo sapiens
# Method in brief: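 Fluo-3-loaded SUP-T1 cells (3×10^5 per well) preincubated with compound for 10 min at 37° C in HBSS/20 mM Hepes/0.2% BSA, pH 7.4, then stimulated with SDF-1. Fluorescence read on a FLIPR for 4 min after a 20-second baseline.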
# HIV-1 NL4.3 or IIIB = experiment: Inhibition of HIV-1 (NL4.3 or IIIB, CXCR4 using) replication in MT-4 cells, MTT viability; conditions: Human immunodeficiency virus 1, IIIB, MT4, concentration protecting 50% of virus-infected cells against viral cytopathicity
# Method in brief: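 MT-4 cells infected at MOI 0.01 (100 × CCID50) with test compound at various concentrations, cytotoxicity run in parallel on uninfected cells. Viable cells quantified by MTT colorimetry after 5 days of proliferation. EC50 is the concentration protecting 50% of infected cells from viral cytopathicity.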
# HIV-1 BaL = experiment: Inhibition of HIV-1 BaL (CCR5 using) replication in PHA-stimulated PBMC's, viral p24 antigen expression; conditions: Human immunodeficiency virus 1, BAL
EC50 (HIV-1 NL4.3 or IIIB) [µg/mL],EC50 (HIV-1 BaL) [µg/mL],Compound,inhibition at 20 µg/mL [1] [%]
< 20,< 20,"Oc1ccccc1CNCc1ccc(CN(Cc2nc3ccccc3[nH]2)C2CCCc3cccnc32)cc1 (stereo not drawn) [Example 68, N-(2-hydroxyphenylmethyl)-N′-(1H-benzimidazol-2-ylmethyl)-N′-(5,6,7,8-tetrahydro-8-quinolinyl)-1,4-benzenedimethanamine]",> 20
< 20,< 20,"c1ccc(CNCc2ccc(CN[C@H]3CCCC[C@H]3NCc3ccccn3)cc2)nc1 [Example 134, N-(2-pyridinylmethyl)-N′-[cis-2-[(N-pyridin-2-ylmethyl)amino]cyclohexyl]-1,4-benzenedimethanamine]",> 20
